Test results: US20210393645A1, “TREATMENT FOR PROGRESSIVE MULTIPLE SCLEROSIS” (UTI LIMITED PARTNERSHIP, priority 2016, published 2021)
Counter-ions that a name gives are not always drawn. Like-named read-outs stand apart in the source and are kept apart here.

Test system: human neurons
Assay: Iron (FeSO4) mediated neurotoxicity screening, MAP-2 positive neurons counted
Type: cell-based
Conditions: for viability at 10 µM: Homo sapiens, Neuron, read-out: Drug % control (mean): number of neurons normalized to untreated control
Procedure: Human neurons were isolated from brain tissues of therapeutically aborted 15-20 week old fetuses, in accordance with ethics approval of the University of Calgary ethics committee, after written informed consent of the pregnant donors. Neurons were isolated as previously described (Vecil et al., 2000) brain specimens were washed in phosphate buffered saline (PBS) to remove blood, followed by removal of meninges. […] Thereafter, the digestion was stopped by addition of 4 ml fetal calf serum (FCS). […] Cells were cultured in feeding medium of minimal essential medium (MEM) supplemented with 10% fetal bovine serum (FBS), 1 μM sodium pyruvate, 10 μM glutamine, 1× non-essential amino acids, 0.1% dextrose and 1% penicillin/streptomycin (all culture supplements from Invitrogen, Burlington, Canada). […] For experiments, the neuron-enriched cultures were retrypsinized and cells were plated in poly-L-ornithine pre-coated 96-well plates at a density of 100,000 cells/well in 100 μl of the complete medium supplemented with cytosine arabinoside. […] All conditions were performed in quadruplicates. A day later cells were fixed using 4% paraformaldehyde (PFA) and stored in PBS in 4° C.
Briefly, there were 80 compounds located in specific wells on each plate (e. g. B07). […] Each compound was supplied at a concentration of 10 mM dissolved in DMSO.
After filtering with a 0.2 μm filter, FeSO4 was added to cells in a final concentration of 25-50 μM in a volume of 50 μl medium to the cells. Rotenone was dissolved in dimethyl sulfoxide (DMSO) and used in a final concentration of 10 μM.
Staining was performed at room temperature. A blocking buffer was first introduced for 1 h followed by incubation with primary antibody overnight in 4° C.
Cell nuclei were stained with Hoechst S769121 (nuclear yellow). Cells were stored in 4° C. in the dark before imaging.
Images were taken using the automated ImageXpress® imaging system (Molecular Devices, Sunnyvale, Calif.) through a 10x objective microscope lens, displaying 4 or 9 sites per well. […] Cells were defined according to fluorescence intensity and size at different wavelengths. Data from all sites per well were averaged to one data point.
Neurons were pre-incubated with each compound for 1 h followed by application of FeSO4.

[1] = drug 10 μM 1 h before FeSO4 25 or 50 μM, MAP-2 neurons after 24 h

Structure (SMILES) | viability at 10 µM [1] | also measured
CC(C)N(CCC(C(N)=O)(c1ccccc1)c1ccccn1)C(C)C (centres unmarked) [DISOPYRAMIDE PHOSPHATE] | 4.63% | 
C[C@H]1c2cccc(O)c2C(=O)C2=C(O)[C@]3(O)C(=O)C(C(N)=O)=C(O)[C@@H](N(C)C)[C@@H]3[C@@H](O)[C@@H]21 [DOXYCYCLINE HYDROCHLORIDE] | 12.7% | 
CC[N+](C)(C)c1cccc(O)c1 [EDROPHONIUM CHLORIDE] | 44% | 
CCOC(=O)[C@H](CCc1ccccc1)N[C@@H](C)C(=O)N1CCC[C@H]1C(=O)O [ENALAPRIL MALEATE] | 41% | 
C[C@@H](CO)NC(=O)[C@@H]1C=C2c3cccc4[nH]cc(c34)C[C@H]2N(C)C1 [ERGONOVINE MALEATE] | 42.7% | 
CCC(=O)O[C@H]1[C@H](O[C@@H]2[C@@H](C)[C@H](O[C@H]3C[C@@](C)(OC)[C@@H](O)[C@H](C)O3)[C@@H](C)C(=O)O[C@H](CC)[C@@](C)(O)[C@H](O)[C@@H](C)C(=O)[C@H](C)C[C@@]2(C)O)O[C@H](C)C[C@@H]1N(C)C [ERYTHROMYCIN ESTOLATE] | 56.7% | 
CCC1(C)CC(=O)NC1=O (centres unmarked) [ETHOSUXIMIDE] | 74.3% | 
CCc1cccc2c3c([nH]c12)C(CC)(CC(=O)O)OCC3 (centres unmarked) [ETODOLAC] | 34.4% | 
O=C1[C@H](CC[C@H](O)c2ccc(F)cc2)[C@@H](c2ccc(O)cc2)N1c1ccc(F)cc1 [EZETIMIBE] | 50.5% | 
CC(=O)OCC(CCn1cnc2cnc(N)nc21)COC(C)=O [FAMCICLOVIR] | 91% | 
CNCCC(Oc1ccc(C(F)(F)F)cc1)c1ccccc1 (centres unmarked) [FLUOXETINE] | 81.4% | 
OCCN1CCN(CCCN2c3ccccc3Sc3ccc(C(F)(F)F)cc32)CC1 [FLUPHENAZINE HYDROCHLORIDE] | 12.1% | 
CC(C(=O)O)c1ccc(-c2ccccc2)c(F)c1 (centres unmarked) [FLURBIPROFEN] | 4.63% | 
C[C@@H]1O[C@@H]1P(=O)(O)O [FOSFOMYCIN] | 31.2% | 
NS(=O)(=O)c1cc(C(=O)O)c(NCc2ccco2)cc1Cl [FUROSEMIDE] | 3.96% | 
Cc1ccc(C)c(OCCCC(C)(C)C(=O)O)c1 [GEMFIBROZIL] | 5.05% | 
Cc1ccc(S(=O)(=O)NC(=O)NN2CC3CCCC3C2)cc1 (centres unmarked) [GLICLAZIDE] | 47.3% | 
COc1ccc(Cl)cc1C(=O)NCCc1ccc(S(=O)(=O)NC(=O)NC2CCCCC2)cc1 [GLYBURIDE] | 45.2% | 
COc1ccccc1OCC(O)CO (centres unmarked) [GUAIFENESIN] | 3.28% | 
O=C(CCCN1CCC(O)(c2ccc(Cl)cc2)CC1)c1ccc(F)cc1 [HALOPERIDOL] | 6.12% | 
CCCCCCc1ccc(O)cc1O [HEXYLRESORCINOL] | 71.5% | 
CN1CCC(OC(c2ccccc2)c2ccccc2)CC1 [HYDROCHLORIDE] | 4.61% | 
NS(=O)(=O)c1cc2c(cc1Cl)NCNS2(=O)=O [HYDROCHLOROTHIAZIDE] | 2.55% | 
CCN(CCO)CCCC(C)Nc1ccnc2cc(Cl)ccc12 (centres unmarked) [HYDROXYCHLOROQUINE SULFATE] | 75.9% | 

Structure (SMILES) | viability at 10 µM [1] | also measured
NC(=O)NO [HYDROXYUREA] | 3.31% | 
OCCOCCN1CCN(C(c2ccccc2)c2ccc(Cl)cc2)CC1 (centres unmarked) [HYDROXYZINE PAMOATE] | 4.01% | 
CC(C)Cc1ccc(C(C)C(=O)O)cc1 (centres unmarked) [IBUPROFEN] | 2.48% | 
COc1ccc2c(c1)c(CC(=O)O)c(C)n2C(=O)c1ccc(Cl)cc1 [INDOMETHACIN] | 4.52% | 
CC(C)[N+]1(C)[C@@H]2CC[C@H]1CC(OC(=O)C(CO)c1ccccc1)C2.[Br-] (some centres unmarked) [IPRATROPIUM BROMIDE] |  | Drug % control (mean): number of neurons normalized to untreated control: 63.39%
NNC(=O)c1ccncc1 [ISONIAZID] | 2.41% | 
CC(C(=O)O)c1cccc(C(=O)c2ccccc2)c1 (centres unmarked) [KETOPROFEN] | 44.3% | 
O=C(c1ccccc1)c1ccc2n1CCC2C(=O)O (centres unmarked) [KETOROLAC TROMETHAMINE] | 52.4% | 
CN1CCC(=C2c3ccccc3CC(=O)c3sccc32)CC1 [KETOTIFEN FUMARATE] | 1.77% | 
Cc1c(OCC(F)(F)F)ccnc1C[S+]([O-])c1nc2ccccc2[nH]1 (centres unmarked) [LANSOPRAZOLE] | 63.9% | 
Nc1nc(=O)c2c([nH]1)NCC(CNc1ccc(C(=O)N[C@@H](CCC(=O)[O-])C(=O)[O-])cc1)N2C=O.[Ca+2] (some centres unmarked) [LEUCOVORIN CALCIUM] |  | Drug % control (mean): number of neurons normalized to untreated control [1]: 24.84%
N[C@@H](Cc1ccc(O)c(O)c1)C(=O)O [LEVODOPA] | 81.2% | 
C[C@H]1COc2c(N3CCN(C)CC3)c(F)cc3c(=O)c(C(=O)O)cn1c23 [LEVOFLOXACIN] | 56.4% | 
CN(C)C(=O)C(CCN1CCC(O)(c2ccc(Cl)cc2)CC1)(c1ccccc1)c1ccccc1 [LOPERAMIDE HYDROCHLORIDE] | 55.5% | 
CCOC(=O)N1CCC(=C2c3ccc(Cl)cc3CCc3cccnc32)CC1 [LORATADINE] | 44.3% | 
CC[C@H](C)C(=O)O[C@H]1C[C@@H](C)C=C2C=C[C@H](C)[C@H](CC[C@@H]3C[C@@H](O)CC(=O)O3)[C@H]21 [LOVASTATIN] |  | viability at 10 µM (24 h): 32.2%
CN1CCN(C2=Nc3ccccc3Oc3ccc(Cl)cc32)CC1 [LOXAPINE SUCCINATE] | 65.9% | 
CNCCCC12CCC(c3ccccc31)c1ccccc12 [MAPROTILINE HYDROCHLORIDE] | 0.61% | 
COC(=O)Nc1nc2ccc(C(=O)c3ccccc3)cc2[nH]1 [MEBENDAZOLE] | 2.48% | 
Cc1cccc(Nc2ccccc2C(=O)O)c1C [MEFENAMIC ACID] | 57.2% | 
Cc1cnc(NC(=O)C2=C(O)c3ccccc3S(=O)(=O)N2C)s1 [MELOXICAM] | 59.5% | 
S=c1nc[nH]c2nc[nH]c12 [MERCAPTOPURINE] | 1.73% | 
CC(=O)/N=c1/sc(S(N)(=O)=O)nn1C [METHAZOLAMIDE] | 54.3% | 
C1N2CN3CN1CN(C2)C3 [METHENAMINE] | 1.94% | 

Structure (SMILES) | viability at 10 µM [1] | also measured
COc1ccccc1OCC(O)COC(N)=O (centres unmarked) [METHOCARBAMOL] | 0.84% | 
CN(Cc1cnc2nc(N)nc(N)c2n1)c1ccc(C(=O)N[C@@H](CCC(=O)O)C(=O)O)cc1 [METHOTREXATE] | 43.3% | 
COc1c2occc2cc2ccc(=O)oc12 [METHOXSALEN] | 59% | 
CCN(CC)CCNC(=O)c1cc(Cl)c(N)cc1OC [METOCLOPRAMIDE HYDROCHLORIDE] | 37.9% | 
Cc1ccccc1N1C(=O)c2cc(S(N)(=O)=O)c(Cl)cc2NC1C (centres unmarked) [METOLAZONE] | 69% | 
COCCc1ccc(OCC(O)CNC(C)C)cc1 (centres unmarked) [METOPROLOL TARTRATE] | 71.5% | 
Cc1ncc([N+](=O)[O-])n1CCO [METRONIDAZOLE] | 27.1% | 
Nc1cc(N2CCCCC2)nc(N)[n+]1[O-] [MINOXIDIL] | 33.7% | 
NC(=O)C[S+]([O-])C(c1ccccc1)c1ccccc1 (centres unmarked) [MODAFINIL] | 43.9% | 
COc1c(C)c2c(c(O)c1C/C=C(\C)CCC(=O)O)C(=O)OC2 [MYCOPHENOLIC ACID] | 45.7% | 
COc1ccc2cc(CCC(C)=O)ccc2c1 [NABUMETONE] | 48.9% | 
C=CCN1CC[C@]23c4c5ccc(O)c4O[C@H]2C(=O)CC[C@@]3(O)[C@H]1C5 [NALOXONE HYDROCHLORIDE] | 69.5% | 
O=C1CC[C@@]2(O)[C@H]3Cc4ccc(O)c5c4[C@@]2(CCN3CC2CC2)[C@H]1O5 [NALTREXONE HYDROCHLORIDE] | 39.5% | 
COc1ccc2cc([C@H](C)C(=O)O)ccc2c1 [NAPROXEN(+)] |  | Drug % control (mean): number of neurons normalized to untreated control [1]: 25.64%
CN(C)C(=O)Oc1cccc([N+](C)(C)C)c1 [NEOSTIGMINE BROMIDE] | 44.8% | 
CC1(C)NC(=O)N(c2ccc([N+](=O)[O-])c(C(F)(F)F)c2)C1=O [NILUTAMIDE] | 48.7% | 
COCCOC(=O)C1=C(C)NC(C)=C(C(=O)OC(C)C)C1c1cccc([N+](=O)[O-])c1 (centres unmarked) [NIMODIPINE] | 62.8% | 
O=C1CN(/N=C/c2ccc([N+](=O)[O-])o2)C(=O)N1 [NITROFURANTOIN] | 17.8% | 
CCn1cc(C(=O)O)c(=O)c2cc(F)c(N3CCNCC3)cc21 [NORFLOXACIN] | 13.6% | 
CC(CCc1ccccc1)NC(C)C(O)c1ccc(O)cc1 (centres unmarked) [NYLIDRIN HYDROCHLORIDE] | 50.1% | 
CCCc1nc(C(C)(C)O)c(C(=O)OCc2oc(=O)oc2C)n1Cc1ccc(-c2ccccc2-c2nnn[nH]2)cc1 [OLIVEESARTAN MEDOXOMIL] |  | Drug % control (mean): number of neurons normalized to untreated control [1]: 55.85%
CCCCCCCCCCC[C@@H](C[C@@H]1OC(=O)[C@H]1CCCCCC)OC(=O)[C@H](CC(C)C)NC=O [ORLISTAT] | 1% | 
Cc1ccccc1C(OCCN(C)C)c1ccccc1 (centres unmarked) [ORPHENADRINE CITRATE] | 54.5% | 
